Series [1] concerns Oryza sativa. As to the kind of experiment: Safener indices, ratio of compound effect of Oryza sativa (rice) growth rate to relieving activity against bensulfuron-methyl induced injury to Oryza sativa growth rate at 1 uM.
Series [2] concerns Oryza sativa. As to the kind of experiment: Relieving activity against bensulfuron-methyl induced injury to Oryza sativa (rice) assessed as growth rate at 0.1 uM (Rbv = 46 to 53%). It counts as functional.
Series [3] has as its system Oryza sativa. The series is described as follows: Safener indices, ratio of compound effect of Oryza sativa (rice) growth rate to relieving activity against bensulfuron-methyl induced injury to Oryza sativa growth rate at 10 uM.
In series [4] the test system is Oryza sativa. The series is described as follows: Relieving activity against bensulfuron-methyl induced injury to Oryza sativa (rice) assessed as growth rate at 1 uM (Rbv = 46 to 53%). The series is classed as functional.
In series [5] the test system is Oryza sativa. The series is described as follows: Effect on Oryza sativa (rice) assessed as growth rate at 0.1 uM relative to control. It counts as organism-based. The following applies: in vivo.
The test system of series [6] is Oryza sativa. As to the kind of experiment: Relieving activity against bensulfuron-methyl induced injury to Oryza sativa (rice) assessed as growth rate at 10 uM (Rbv = 46 to 53%). The series is classed as functional.
The subject of series [7] is Oryza sativa. As to the kind of experiment: Safener indices, ratio of compound effect of Oryza sativa (rice) growth rate to relieving activity against bensulfuron-methyl induced injury to Oryza sativa growth rate at 0.1 uM.
The nature of series [8]: Hydrophobicity, log K of the compound. It counts as physicochemical. Conditions: octanol/water.
The subject of series [9] is Oryza sativa. As to the kind of experiment: Effect on Oryza sativa (rice) assessed as growth rate at 10 uM relative to control. The series is classed as organism-based. Conditions: in vivo.
Series [10] concerns Oryza sativa. As to the kind of experiment: Effect on Oryza sativa (rice) assessed as growth rate at 1 uM relative to control. It counts as organism-based. The following applies: in vivo.

SMILES strings stand for the structures.

As to `CCc1cccc(NC(=O)N[C@H](C)c2ccccc2)c1`, the results for the Ratio with Oryza sativa [1], in the series with Oryza sativa [3] and in the series on Oryza sativa [7] were 36, 29 and 8, respectively. For the same compound, the Activity in the series on Oryza sativa [2] is given as 54%; with Oryza sativa [4], 59%; in the series with Oryza sativa [5] it was 97%; in the series with Oryza sativa [6], 42%; in the series on Oryza sativa [9] it was 36%; in the series with Oryza sativa [10], 71%. The “log K” value in series [8] stood at 0.489.
In the case of `C[C@@H](NC(=O)Nc1cccc(C(F)(F)F)c1F)c1ccccc1`, the Ratio amounted to 79 with Oryza sativa [1], 92 in the series with Oryza sativa [3] and 33 in the series on Oryza sativa [7]. The Activity in the series with Oryza sativa [2] is recorded as 68%; in the series on Oryza sativa [4], 90%; in the series with Oryza sativa [5], 99%; in the series on Oryza sativa [6] it was 96%; with Oryza sativa [9], 98%; in the series on Oryza sativa [10], 99%. Besides, in [8], the “log K” value was 0.624.
`CC(=O)c1ccc(NC(=O)N[C@H](C)c2ccccc2)cc1`: the Ratio in the series on Oryza sativa [1] came to 27; in the series on Oryza sativa [3], 65; in the series on Oryza sativa [7], 4. The Activity in the series with Oryza sativa [2] turned out to be 49%; in the series on Oryza sativa [4], 59%; in the series with Oryza sativa [5] it was 96%; with Oryza sativa [6], 79%; in the series on Oryza sativa [9], 84%; in the series with Oryza sativa [10], 93%. Moreover, the “log K” value in series [8] is on record as 0.227.
For `COc1cccc(NC(=O)N[C@@H](C)c2ccccc2)c1`, the Ratio in the series with Oryza sativa [1] was found to be 70; in the series on Oryza sativa [3], 94; in the series on Oryza sativa [7], 22. In addition, the Activity in the series on Oryza sativa [2] worked out at 65%; with Oryza sativa [4] it was 86%; in the series on Oryza sativa [5] it was 101%; in the series with Oryza sativa [6], 97%; with Oryza sativa [9] it was 99%; with Oryza sativa [10], 99%. Moreover, the “log K” value in [8] turned out to be 0.277.
As for `CC(=O)c1ccccc1NC(=O)N[C@@H](C)c1ccccc1`, the Ratio in the series with Oryza sativa [1] is listed as 35; in the series with Oryza sativa [3] it was 50; with Oryza sativa [7], 9. For the same compound, the Activity is on record as 53% in the series on Oryza sativa [2]; 65% in the series with Oryza sativa [4]; 100% in the series on Oryza sativa [5]; 73% with Oryza sativa [6]; 96% in the series with Oryza sativa [9]; 97% in the series with Oryza sativa [10]. The “log K” value in series [8] was 0.432.
Regarding `C[C@@H](NC(=O)Nc1c(F)cccc1F)c1ccccc1`, the figures for the Ratio in the series on Oryza sativa [1], in the series with Oryza sativa [3] and in the series with Oryza sativa [7] were 8, 42 and 2, respectively. The Activity is 51% with Oryza sativa [2]; 54% in the series on Oryza sativa [4]; 100% in the series with Oryza sativa [5]; 71% with Oryza sativa [6]; 98% in the series with Oryza sativa [9]; 100% with Oryza sativa [10]. Further, in series [8], the “log K” value is given as 0.238.
In the case of `C[C@H](NC(=O)Nc1ccc(F)cc1F)c1ccccc1`, the Ratio was found to be 56 in the series with Oryza sativa [1], 85 in the series on Oryza sativa [3] and 28 in the series on Oryza sativa [7]. Besides, the Activity in the series on Oryza sativa [2] stood at 65%; in the series on Oryza sativa [4], 79%; in the series on Oryza sativa [5], 101%; in the series on Oryza sativa [6], 93%; in the series on Oryza sativa [9], 99%; with Oryza sativa [10] it was 100%. Besides, the “log K” value in series [8] is recorded as 0.394.
Turning to `C[C@H](NC(=O)Nc1cc(Cl)cc(Cl)c1)c1ccccc1`, the Ratio is 59 with Oryza sativa [1], 76 with Oryza sativa [3] and 46 with Oryza sativa [7]. For the same compound, the Activity turned out to be 74% in the series with Oryza sativa [2]; 80% in the series on Oryza sativa [4]; 99% with Oryza sativa [5]; 88% with Oryza sativa [6]; 99% with Oryza sativa [9]; 100% in the series on Oryza sativa [10]. Moreover, the “log K” value in series [8] amounted to 0.703.
In the case of `C[C@H](NC(=O)Nc1ccc(C(C)(C)C)cc1)c1ccccc1`, the Ratio in the series on Oryza sativa [1] is listed as 37; with Oryza sativa [3], 53; in the series with Oryza sativa [7] it was 4. Moreover, the Activity in the series with Oryza sativa [2] amounted to 52%; with Oryza sativa [4] it was 65%; with Oryza sativa [5], 100%; in the series with Oryza sativa [6], 68%; with Oryza sativa [9], 64%; with Oryza sativa [10] it was 88%. The “log K” value in series [8] amounted to 0.673.
As to `CCc1ccc(NC(=O)N[C@H](C)c2ccccc2)cc1`, the Ratio stood at 24 in the series with Oryza sativa [1], 32 with Oryza sativa [3] and 15 in the series with Oryza sativa [7]. For the same compound, the Activity is given as 56% in the series on Oryza sativa [2]; 43% in the series with Oryza sativa [4]; 95% in the series on Oryza sativa [5]; 47% in the series with Oryza sativa [6]; 44% with Oryza sativa [9]; 47% in the series with Oryza sativa [10]. In addition, the “log K” value in series [8] is 0.487.
`CCc1cccc(NC(=O)N[C@@H](C)c2ccccc2)c1`: the Ratio in the series on Oryza sativa [1] is reported as 48; in the series with Oryza sativa [3], 68; in the series with Oryza sativa [7], 15. In addition, the Activity is 58% in the series on Oryza sativa [2]; 72% with Oryza sativa [4]; 100% in the series on Oryza sativa [5]; 82% with Oryza sativa [6]; 86% in the series with Oryza sativa [9]; 94% in the series with Oryza sativa [10]. Further, the “log K” value in series [8] stood at 0.489.
Consider `CCCc1ccc(NC(=O)N[C@H](C)c2ccccc2)cc1`, for which the values for the Ratio in the series on Oryza sativa [1], in the series on Oryza sativa [3] and with Oryza sativa [7] were 20, 24 and 18, respectively. Also, the Activity in the series on Oryza sativa [2] worked out at 32%; in the series on Oryza sativa [4], 33%; with Oryza sativa [5], 33%; in the series on Oryza sativa [6] it was 38%; in the series on Oryza sativa [9], 35%; in the series on Oryza sativa [10], 31%. Further, in series [8], the “log K” value was 0.602.
`C[C@@H](NC(=O)Nc1ccc(F)cc1)c1ccccc1`: the Ratio is recorded as 16 in the series with Oryza sativa [1], 52 with Oryza sativa [3] and -3 in the series with Oryza sativa [7]. For the same compound, the Activity in the series with Oryza sativa [2] is given as 47%; with Oryza sativa [4] it was 55%; in the series with Oryza sativa [5], 98%; with Oryza sativa [6] it was 73%; in the series with Oryza sativa [9], 92%; in the series with Oryza sativa [10] it was 96%. For the same compound, in series [8], the “log K” value turned out to be 0.307.
In the case of `C[C@@H](NC(=O)Nc1ccccc1)c1ccccc1`, the results for the Ratio in the series with Oryza sativa [1], with Oryza sativa [3] and in the series on Oryza sativa [7] were 36, 60 and 7, respectively. Also, the Activity was found to be 56% in the series with Oryza sativa [2]; 69% in the series on Oryza sativa [4]; 101% in the series on Oryza sativa [5]; 77% in the series with Oryza sativa [6]; 79% in the series on Oryza sativa [9]; 98% in the series on Oryza sativa [10]. Besides, the “log K” value in [8] is 0.28.
Consider `CC(=O)c1ccccc1NC(=O)N[C@H](C)c1ccccc1`, for which the values for the Ratio in the series on Oryza sativa [1], in the series with Oryza sativa [3] and with Oryza sativa [7] were 10, 49 and 1, respectively. The Activity is recorded as 46% in the series on Oryza sativa [2]; 51% with Oryza sativa [4]; 96% in the series with Oryza sativa [5]; 71% in the series with Oryza sativa [6]; 89% in the series with Oryza sativa [9]; 95% with Oryza sativa [10]. Further, the “log K” value in [8] came out at 0.432.
`C[C@H](NC(=O)Nc1ccc(C(F)(F)F)cc1)c1ccccc1`: the Ratio with Oryza sativa [1] is 72; in the series with Oryza sativa [3], 86; in the series with Oryza sativa [7] it was 36. The Activity in the series on Oryza sativa [2] was 67%; in the series with Oryza sativa [4] it was 85%; in the series on Oryza sativa [5] it was 94%; in the series on Oryza sativa [6] it was 93%; in the series on Oryza sativa [9], 94%; in the series with Oryza sativa [10], 94%. In addition, the “log K” value in series [8] turned out to be 0.537.
As to `CC(=O)c1cccc(NC(=O)N[C@H](C)c2ccccc2)c1`, the Ratio in the series with Oryza sativa [1] worked out at 25; with Oryza sativa [3], 41; in the series with Oryza sativa [7], 5. Besides, the Activity in the series on Oryza sativa [2] was determined as 50%; in the series on Oryza sativa [4], 57%; in the series on Oryza sativa [5], 98%; in the series on Oryza sativa [6] it was 62%; in the series on Oryza sativa [9], 73%; in the series on Oryza sativa [10], 88%. The “log K” value in series [8] came to 0.245.
Take `CCc1cccc(CC)c1NC(=O)N[C@@H](C)c1ccccc1`: the Ratio with Oryza sativa [1] turned out to be 6; in the series on Oryza sativa [3], 6; in the series with Oryza sativa [7], 1. Besides, the Activity with Oryza sativa [2] was 52%; with Oryza sativa [4], 50%; in the series with Oryza sativa [5], 101%; with Oryza sativa [6], 46%; in the series with Oryza sativa [9], 83%; in the series with Oryza sativa [10], 93%. In series [8], the “log K” value is reported as 0.523.
Turning to `C[C@H](NC(=O)Nc1cccc(Cl)c1)c1ccccc1`, the Ratio in the series on Oryza sativa [1] was 57; with Oryza sativa [3], 82; in the series with Oryza sativa [7], 31. The Activity in the series with Oryza sativa [2] is reported as 68%; in the series on Oryza sativa [4] it was 79%; with Oryza sativa [5] it was 103%; in the series on Oryza sativa [6] it was 92%; in the series with Oryza sativa [9], 103%; in the series on Oryza sativa [10], 99%. Also, in series [8], the “log K” value turned out to be 0.47.
Take `C[C@H](NC(=O)Nc1ccccc1Cl)c1ccccc1`: the Ratio in the series with Oryza sativa [1] was 80; in the series with Oryza sativa [3] it was 95; in the series on Oryza sativa [7] it was 50. Also, the Activity with Oryza sativa [2] stood at 75%; with Oryza sativa [4] it was 91%; with Oryza sativa [5] it was 99%; in the series with Oryza sativa [6] it was 98%; in the series on Oryza sativa [9], 106%; with Oryza sativa [10], 104%. Further, the “log K” value in series [8] was 0.486.

Source of the values: ChEMBL document CHEMBL3045406, “Enantioselective Relieving Activity of α-Methylbenzylphenylureas toward Bensulfuron-methyl Injury to Rice (Oryza sativa)” (Biosci Biotechnol Biochem, 1999).
